In patent US6559157B2, “Dihydronaphthalene compounds” (Daiichi Pharmaceutical Co., Ltd., priority 1997, dated 2003):
pIC50: −log10 of the molar value.

molecular target: T1, Aromatase (Homo sapiens, UniProt P11511); experiment: Aromatase inhibiting activity test, human placenta microsomes; assay type: biochemical; settings: inhibitor 25 μM, testosterone 2.5 μM, NADPH 250 μM
T1 construct: Aromatase was prepared from the microsome fraction of human placenta tissue; from tissue; host or cells: human placenta (microsome fraction)
T1 sequence (P11511 1-503): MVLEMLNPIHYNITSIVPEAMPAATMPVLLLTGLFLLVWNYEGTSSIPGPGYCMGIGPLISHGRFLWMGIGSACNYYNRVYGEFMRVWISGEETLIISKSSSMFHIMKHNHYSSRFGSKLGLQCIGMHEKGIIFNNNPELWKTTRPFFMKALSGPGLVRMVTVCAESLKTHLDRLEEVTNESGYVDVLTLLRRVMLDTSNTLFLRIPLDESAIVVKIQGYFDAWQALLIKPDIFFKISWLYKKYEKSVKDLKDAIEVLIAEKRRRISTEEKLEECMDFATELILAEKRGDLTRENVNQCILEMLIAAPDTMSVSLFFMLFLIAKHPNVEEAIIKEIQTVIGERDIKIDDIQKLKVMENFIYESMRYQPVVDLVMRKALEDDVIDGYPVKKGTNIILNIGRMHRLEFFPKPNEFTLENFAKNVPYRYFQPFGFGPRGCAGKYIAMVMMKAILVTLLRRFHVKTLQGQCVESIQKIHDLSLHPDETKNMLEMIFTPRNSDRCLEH
Procedure: Measurement was done according to the method of Rolf W. Hartmann and Christine Batzl (J. Med. Chem., 29, 8, 1368, 1986).
Aromatase was prepared from the microsome fraction of human placenta tissue according to the method of Thompson and Siiteri (J. Biol. Chem., 249, 5346, 1974). Microsomes obtained were suspended in a phosphate buffer solution (0.05 M, pH 7.4) and stored at −30° C.
Enzyme activity was evaluated by measuring the amount of ^3H2O produced by [1β, 2β-^3H] testosterone during the reaction according to the methods of Foster A. B. et al. (Foster A. B. et al., J. Med. Chem., 26, 50, 1983) and Graves P. E. and Salhanick H. A. (Endocrinology, 105, 52, 1979) as follows. To a test tube containing 0.225 μCi of [1β, 2β-^3H]testosterone were added 5 μM unlabeled testosterone, 2 mM NADPH, 20 mM glucose-6-phosphate, 1EU of glucose-6-phosphate dehydrogenase, and a test compound (0-250 μM) dissolved in phosphate buffer (0.05 M, pH 7.4). The test compound was dissolved in ethanol and diluted with the phosphate buffer. The final ethanol concentration in a reaction solution of the control and the test compound was 2%. This test tube was preincubated in a water bath at 30° C. for 5 minutes. Next, 0.5 mg of the microsome enzyme was added to start the reaction. The total volume of the reaction solution was 0.5 ml. Water phase portions (100 μl) were taken 0, 7, 14, and 21 minutes after the start of the reaction and added to 200 μl of cold 1 mM HgCl2. To this were added 200 μl of a 2% dextran-treated activatd charcoal (DCC) suspension. The admixture was shaken for 20 minutes and then centrifuged at 1500× g for 5 minutes to isolate the steroid adsorbed on DCC. The amount of the produced ^3H2O in the fractionated supernatant was counted by a liquid scintillation counter. Control samples with no test compound were tested in the same manner. The inhibiting activity (%) was calculated from the measurement using calculation formula 1.
Enzyme source: Human placenta microsomes
Inhibitor concentration: 25 μM (inhibiting activity (%) was calculated)
Substrate concentration: 2.5 μM (testosterone)
NADPH concentration: 250 μM

Q: Which inhibition at 25 µM does the source give for `CC1=C(Cc2cccnc2)CCc2ccccc21` [Example 15] here?
A: 56%

Q: Which inhibition at 25 µM does the source give for `COc1cccc2c1CCC(Cc1cccnc1)=C2C` [Example 16] here?
A: 50%

Q: With `COc1ccc2c(c1)CCC(Cc1cccnc1)=C2C` [Example 17] as the molecule, how does the inhibition at 25 µM read?
A: 52%

Q: With `COc1ccc2c(c1)C(C)=C(Cc1cccnc1)CC2` [Example 18] as the molecule, how does the inhibition at 25 µM read?
A: 61%

Q: For `CC1=C(Cc2cccnc2)CCc2c(O)cccc21` [Example 23], which inhibition at 25 µM is on record?
A: 60%

Q: With `CC1=C(Cc2cccnc2)CCc2cc(O)ccc21` [Example 24] as the molecule, how does the inhibition at 25 µM read?
A: 37%

same assay, conditions: testosterone 2.5 μM, NADPH 250 μM

Q: With `CC1=C(Cc2ccncc2)CCc2ccccc21` [Example 19] as the molecule, how does the pIC50 read?
A: 6.64

Q: With `COc1cccc2c1CCC(Cc1ccncc1)=C2C` [Example 20] as the molecule, how does the pIC50 read?
A: 6.42

Q: With `COc1ccc2c(c1)CCC(Cc1ccncc1)=C2C` [Example 21] as the molecule, how does the pIC50 read?
A: 6.19

Q: With `COc1ccc2c(c1)C(C)=C(Cc1ccncc1)CC2` [Example 22] as the molecule, how does the pIC50 read?
A: 6.20

Q: With `CC1=C(Cc2cccnc2)CCc2ccc(O)cc21` [Example 25] as the molecule, how does the pIC50 read?
A: 5.19

Q: With `CC1=C(Cc2ccncc2)CCc2c(O)cccc21` [Example 26] as the molecule, how does the pIC50 read?
A: 6.15

Q: With `CC1=C(Cc2ccncc2)CCc2cc(O)ccc21` [Example 27] as the molecule, how does the pIC50 read?
A: 5.89

Q: With `CC1=C(Cc2ccncc2)CCc2ccc(O)cc21` [Example 28] as the molecule, how does the pIC50 read?
A: 5.92

Q: With `CCC1=C(Cc2ccncc2)CCc2c(OC)cccc21` [Example 37] as the molecule, how does the pIC50 read?
A: 6.02

Q: With `CCC1=C(Cc2ccncc2)CCc2cc(OC)ccc21` [Example 38] as the molecule, how does the pIC50 read?
A: 6.10

Q: With `CCC1=C(Cc2ccncc2)CCc2ccc(OC)cc21` [Example 39] as the molecule, how does the pIC50 read?
A: 5.89

Q: With `CCOc1ccc2c(c1)C(C)=C(Cc1c[nH]cn1)CC2` [Example 40] as the molecule, how does the pIC50 read?
A: 5.92

Q: With `COc1cccc2c1CCC(Cc1ccncc1)=C2` [Example 41] as the molecule, how does the pIC50 read?
A: 6.02

Q: With `COc1ccc2c(c1)CCC(Cc1ccncc1)=C2` [Example 42] as the molecule, how does the pIC50 read?
A: 6.10

Q: With `COc1ccc2c(c1)C=C(Cc1ccncc1)CC2` [Example 43] as the molecule, how does the pIC50 read?
A: 5.77

Q: With `CCCC1=C(Cc2ccncc2)CCc2cc(OC)ccc21` [Example 44] as the molecule, how does the pIC50 read?
A: 6.07

Q: With `Oc1ccc2c(c1)CCC(Cc1ccncc1)=C2` [Example 45] as the molecule, how does the pIC50 read?
A: 5.46

Q: With `COc1ccc2c(c1)CCC(Cc1c[nH]cn1)=C2` [Example 46] as the molecule, how does the pIC50 read?
A: 5.74

system: not given; experiment: not given; settings: not given

Q: Which melting point does the source give for `COc1cccc2c1CCC(=Cc1c[nH]cn1)C2=O` [Example 50] here?
A: 194 to 195 °C

Q: With `COc1cccc2c1CCC(Cc1c[nH]cn1)C2=O` (centres unmarked) [Example 51] as the molecule, how does the melting point read?
A: 145.5 to 148 °C

Q: Which melting point does the source give for `COc1cccc2c1CCC(Cc1c[nH]cn1)=C2C` [Example 52] here?
A: 132.5 to 135 °C

Q: Which melting point does the source give for `CCC1=C(Cc2c[nH]cn2)CCc2cc(OC)ccc21` [Example 53] here?
A: 138 to 141.5 °C

Q: For `CCC1=C(Cc2c[nH]cn2)CCc2ccc(OC)cc21` [Example 54], which melting point is on record?
A: 111.5 to 113.5 °C

Q: For `CCC1=C(Cc2c[nH]cn2)CCc2c(OC)cccc21.Cl` [Example 55], which melting point is on record?
A: 164 to 166 °C

Q: With `CCCC1=C(Cc2c[nH]cn2)CCc2cc(OC)ccc21` [Example 56] as the molecule, how does the melting point read?
A: 123.5 to 124.5 °C

Q: For `CCCC1=C(Cc2c[nH]cn2)CCc2c(OC)cccc21` [Example 57], which melting point is on record?
A: 174.5 to 175.5 °C

Q: For `COc1ccc2c(c1)CCC(Cc1c[nH]cn1)=C2c1ccccc1` [Example 58], which melting point is on record?
A: 201.5 to 202.5 °C

Q: Which melting point does the source give for `COc1ccc2c(c1)C(c1ccccc1)=C(Cc1c[nH]cn1)CC2` [Example 59] here?
A: 198.5 to 199.5 °C

Q: With `COc1cccc2c1CCC(Cc1c[nH]cn1)=C2c1ccccc1` [Example 60] as the molecule, how does the melting point read?
A: 200 to 202 °C

Q: For `COc1ccc2c(c1)CCC(Cc1c[nH]cn1)=C2Cc1ccccc1` [Example 61], which melting point is on record?
A: 122.5 to 123 °C

Q: For `COc1cccc2c1CCC(Cc1c[nH]cn1)=C2.Cl` [Example 62], which melting point is on record?
A: 192.5 to 194.5 °C

Q: Which melting point does the source give for `COc1ccc2c(c1)C=C(Cc1c[nH]cn1)CC2` [Example 63] here?
A: 155.5 to 156.5 °C

Q: With `CCOc1cccc2c1CCC(=Cc1c[nH]cn1)C2=O` [Example 64] as the molecule, how does the melting point read?
A: 122 to 124 °C

Q: With `CCOc1cccc2c1CCC(Cc1c[nH]cn1)C2=O` (centres unmarked) [Example 65] as the molecule, how does the melting point read?
A: 132 to 134 °C

Q: For `CCOc1ccc2c(c1)CCC(=Cc1c[nH]cn1)C2=O` [Example 66], which melting point is on record?
A: 133.5 to 134.5 °C

Q: Which melting point does the source give for `CCOc1ccc2c(c1)CCC(Cc1c[nH]cn1)C2=O` (centres unmarked) [Example 67] here?
A: 143.5 to 144.5 °C

Q: With `CCOc1ccc2c(c1)C(=O)C(=Cc1c[nH]cn1)CC2` [Example 68] as the molecule, how does the melting point read?
A: 139.5 to 141 °C

Q: With `CCOc1ccc2c(c1)C(=O)C(Cc1c[nH]cn1)CC2` (centres unmarked) [Example 69] as the molecule, how does the melting point read?
A: 176.5 to 178.5 °C

Q: With `CCOc1cccc2c1CCC(Cc1c[nH]cn1)=C2C` [Example 70] as the molecule, how does the melting point read?
A: 133.5 to 136 °C

Q: Which melting point does the source give for `CCOc1ccc2c(c1)CCC(Cc1c[nH]cn1)=C2C` [Example 71] here?
A: 126 to 127 °C

Q: With `CCOc1ccc2c(c1)C(C)=C(Cc1c[nH]cn1)CC2.Cl` [Example 72] as the molecule, how does the melting point read?
A: 170.5 to 171.5 °C

Q: Which melting point does the source give for `CCCOc1ccc2c(c1)CCC(=Cc1c[nH]cn1)C2=O` [Example 73] here?
A: 156.5 to 158 °C

Q: With `CCCOc1ccc2c(c1)CCC(Cc1c[nH]cn1)C2=O` (centres unmarked) [Example 74] as the molecule, how does the melting point read?
A: 134.5 to 136 °C

Q: Which melting point does the source give for `CCCOc1ccc2c(c1)CCC(Cc1c[nH]cn1)=C2C` [Example 75] here?
A: 91.5 to 92 °C

Q: With `CC(C)COc1ccc2c(c1)CCC(=Cc1c[nH]cn1)C2=O` [Example 76] as the molecule, how does the melting point read?
A: 79 to 81.5 °C

Q: For `CC(C)COc1ccc2c(c1)CCC(Cc1c[nH]cn1)C2=O` (centres unmarked) [Example 77], which melting point is on record?
A: 114.5 to 115 °C

Q: With `CC1=C(Cc2c[nH]cn2)CCc2cc(OCC(C)C)ccc21` [Example 78] as the molecule, how does the melting point read?
A: 96 to 97 °C

system: Thromboxane A2 synthesis; experiment: Thromboxane A2 synthesis inhibiting activity test in citric acid-treated human whole blood; assay type: cell-based; settings: inhibitor 50 μM, collagen-stimulated
Procedure: Measurement was done as follows according to the method of Rolf W. Hartmann et al. (Arch. Pharm. Pharm. Med. Chem., 329, 251, 1996). To 0.5 ml of citric acid-treated human whole blood were added 10 μl of an ethanol/K-Na-phosphate buffer solution (pH 7.4) containing a test compound, and the admixture was preincubated at 37° C. for 10 minutes. Dazoxybene hydrochloride (100 μM) was added to the blanks. Next, 50 μl of a collagen solution (final collagen concentration: 53.6 μg/ml) were added and incubation was continued at 37° C. for 10 minutes. The reaction was stopped by adding 0.4 ml of a 20% trichloroacetic acid solution in 0.6 M hydrochloric acid, and the admixture was centrifuged at 4400× g for 10 minutes. The resulting supernatant (0.5 ml) was fractionated and added to 0.5 ml of a 0.53% thiobarbituric acid solution (solvent: K-Na-phosphate buffer (pH 7.4)), and the admixture was heated for 70 minutes and then allowed to stand at room temperature for 30 minutes. This sample was measured by a fluorophotometer (excitation wave length: 533 nm, measurement wave length: 550 nm). Control samples without test compounds were tested in the same manner. The inhibiting activity (%) was calculated from the measurements using formula 1.
Enzyme source: Citric acid-treated human whole blood
Inhibitor concentration: 50 μM (inhibiting activity (%) was calculated)
Substrate concentration: 25 μM (progesterone)

Q: For `CC1=C(Cc2ccncc2)CCc2ccccc21` [Example 19], which inhibition at 50 µM is on record?
A: 25%

Q: Which inhibition at 50 µM does the source give for `COc1cccc2c1CCC(Cc1ccncc1)=C2C` [Example 20] here?
A: 60%

Q: For `COc1ccc2c(c1)CCC(Cc1ccncc1)=C2C` [Example 21], which inhibition at 50 µM is on record?
A: 43%
